Experimental data taken from patent publication US20250084094A1 (Vertex Pharmaceuticals Incorporated, priority 2021, published 2025).

Target: T1, APOL1 (Homo sapiens, UniProt O14791)
T1 sequence (O14791 1-398 S342G/I384M): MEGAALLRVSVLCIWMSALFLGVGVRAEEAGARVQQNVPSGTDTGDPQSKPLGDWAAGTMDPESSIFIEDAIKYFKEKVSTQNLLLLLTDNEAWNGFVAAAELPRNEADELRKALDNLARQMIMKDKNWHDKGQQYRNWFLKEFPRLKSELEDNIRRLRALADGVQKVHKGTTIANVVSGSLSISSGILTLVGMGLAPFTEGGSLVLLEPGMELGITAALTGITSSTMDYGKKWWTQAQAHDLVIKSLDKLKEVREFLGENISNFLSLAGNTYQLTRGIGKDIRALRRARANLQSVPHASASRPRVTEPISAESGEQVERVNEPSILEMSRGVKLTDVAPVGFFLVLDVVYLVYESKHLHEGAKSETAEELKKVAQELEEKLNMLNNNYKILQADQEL
Experiment: MultiTox-Fluor Multiplex Cytotoxicity Assay in tet-inducible APOL1 T-REx-HEK293 cells
Format: cell-based
Conditions: tet-inducible transgenic APOL1 T-REx-HEK293 cell lines, 50 ng/mL tet, 24 hours, ratio of dead to live cells; read-out: IP50 (nM) (i.e., IC50 for cell proliferation)
Method: The MultiTox-Fluor Multiplex Cytotoxicity Assay is a single-reagent-addition, homogeneous, fluorescence assay that measures the number of live and dead cells simultaneously in culture wells. The assay measures cell viability and cytotoxicity by detecting two distinct protease activities. The live-cell protease activity is restricted to intact viable cells and is measured using a fluorogenic, cell-permeant peptide glycyl-phenylalanylamino fluorocoumarin (GF-AFC) substrate. The substrate enters intact cells, where it is cleaved to generate a fluorescent signal proportional to the number of living cells. […] A second, cell-impermeant, fluorogenic peptide substrate (bis-AAF-R110 Substrate) is used to measure dead-cell protease that has been released from cells that have lost membrane integrity. A ratio of dead to live cells is used to normalize data.
Briefly, the tet-inducible transgenic APOL1 T-REx-HEK293 cell lines were incubated with 50 ng/mL tet to induce APOL1 in the presence of 3-(2-(4-fluorophenyl)-1H-indol-3-yl)-N-((3S,4R)-4-hydroxy-2-oxopyrrolidin-3-yl)propenamide at 10.03, 3.24, 1.13, 0.356, 0.129, 0.042, 0.129, 0.0045, 0.0015, 0.0005 μM in duplicate for 24 hours in a humidified 37° C. incubator. The MultiTox reagent was added to each well and placed back in the incubator for an additional 30 minutes. The plate was read on the EnVision plate reader. A ratio of dead to live cells was used to normalize, and data was imported, analyzed, and fit using Genedata Screener (Basel, Switzerland) software. Data was normalized using percent of control, no tet (100% viability), and 50 ng/mL tet treated (0% viability),and fit using Smart Fit. The reagents, methods, and complete protocol for the MultiTox assay are described below.
Human embryonic kidney (HEK293) cell lines containing a tet-inducible expression system (T-REx™; Invitrogen, Carlsbad, CA) and Adeno-associated virus site 1 pAAVS1-Puro-APOL1 G0 or pAAVS1-Puro-APOL1 G1 or pAAVS1-Puro-APOL1 G2 Clones G0 DC2.13, Gi DC3.25, and G2 DC4.44 were grown in a T-225 flask at ˜90% confluency in cell growth media (DMEM, 10% Tet-free FBS, 2 mM L-glutamine, 100 Units/mL penicillin-streptomycin, 5 μg/mL blasticidin S HCl, 1 μg/mL puromycin dihydrochloride). Cells were washed with DPBS and then trypsinized to dissociate from the flask. Media was used to quench the trypsin, cells were then pelleted at 200 g and resuspended in fresh cell assay media (DMEM, 2% Tet-free FBS, 2 mM L-glutamine, 100 Units/mL penicillin-streptomycin). Cells were counted and diluted to 1.17×10^6 cells/mL. 20 μL of cells (23,400/well) were dispensed in every well of a 384-well Poly-D-Lysine coated plate using the Multidrop dispenser. The plates were then incubated at room temperature for one hour.
Tetracycline is needed to induce APOL1 expression. 1 mg/mL tet stock in water was diluted to 250 ng/mL (5×) in cell assay media. 60 μL of cell assay media (no tet control) was dispensed in columns 1 and 24, and 60 μL of 5× tet in 384-PP-round bottom plate was dispensed in columns 2 to 23 with the Multidrop dispenser.
Assay ready plates from the Global Compound Archive were ordered using template 384_APOLICell_DR10n2_50 uM_v3. Compounds were dispensed at 200 nL in DMSO. The final top concentration was 10 μM with a 10 point 3-fold dilution in duplicate in the MultiTox assay.
20 μL was transferred from the 5× tet plate to the ARP and mixed, then 5 μL of 5× tet and the compounds were transferred to the cell plate and mixed using the Bravo. The cell plate was placed in the humidified 37° C. 5% CO2 incubator for 24 hours.
The MultiTox-Fluor Multiplex Cytotoxicity Assay was performed in accordance with the manufacturer's protocol. After cells were incubated with tet and compound for 24 hours, 25 μL of 1x MultiTox reagent was added to each well using the Multidrop dispenser; the plates were placed on a plate shaker (600 rpm) for 2 minutes, then centrifuged briefly and placed back in the 37° C. incubator for 30 minutes. […]

| SMILES | IC50 [nM] |
| --- | --- |
| C[C@H]1C[C@@]2(C[C@@H](c3ccn(CCS(C)(=O)=O)c3)N1)OCCc1ccc(Cl)c(O)c12 [Compound 4] | 50 to 500 |
| C[C@H]1C[C@@]2(C[C@@H](c3cn(C)nn3)N1)OCCc1cc(CO)ccc12 [Compound 22] | > 500 |
| C[C@H]1C[C@@]2(C[C@@H](c3cn(C)nn3)N1)C(=O)Nc1cc(Cl)ccc12 [Compound 36, (2′S,3S,6′S)-6-chloro-2′-methyl-6′-(1-methyltriazol-4-yl)spiro[indoline-3,4′-piperidine]-2-one] | < 50 |
| C[C@H]1CC2(C[C@@H](c3cn(C)nn3)N1)OC(C(N)=O)c1cc(Cl)ccc12 (single isomer, unassigned) [Compound 40, (2′S,6′S)-6-chloro-2′-methyl-6′-(1-methyltriazol-4-yl)spiro[1H-isobenzofuran-3,4′-piperidine]-1-carboxamide] | 50 to 500 |
| CC1CC2(CC(c3cnn(CCS(C)(=O)=O)c3)N1)OCCc1ccc(Cl)cc12 (stereo not drawn) [Compound 24] | 50 to 500 |
| Cc1ccc2c(c1)NC(=O)[C@@]21C[C@@H](c2cn(C)nn2)N[C@@H](C)C1 [Compound 33, (2′S,3S,6′S)-2′,6-dimethyl-6′-(1-methyltriazol-4-yl)spiro[indoline-3,4′-piperidine]-2-one] | < 50 |
